{"source": "paper PMC11234460", "about": "“In Silico Discovery of Stapled Peptide Inhibitor Targeting the Nur77‐PPARγ Interaction and Its Anti‐Breast‐Cancer Efficacy” (Advanced Science, 2024)", "key": {"[1]": {"system": "mutated Nur77-EGFP (Gln571, Glu398, Phe598)", "test": "MST with mutated Nur77-EGFP in HEK293T cell lysate", "format": "binding", "conditions": "Nur77 mutated at Gln571, Glu398 and Phe598, Monolith NT.115, 40% MST power", "protocol": "The MST measure for the affinity of the peptide with purified Nur77 LBD protein was performed by Dianthus (Nano Temper). First, 1 × 10^−5 M protein was labeled with fluorescent dye and incubated with variable concentrations (0.1/0.4/0.8/1.6/3.1/6.3/12.5/25/50/100 × 10^−6 M) of peptides in PBST (containing 0.05% Tween‐20) (v/v, 10 µL: 10 µL). Incubated at room temperature away from light for 20 min, the mixture was loaded into the capillary and scanned. The MST measure for the affinity of the peptide with mutated Nur77‐EGFP was performed by Monolith NT.115 (Nano Temper). The HEK293T cell lysate was collected after transfection with the mutated Nur77‐EGFP plasmid for 48 h. The level of mutated Nur77‐EGFP was verified by the detection of fluorescence intensity. Different concentrations (0.1/0.4/0.8/1.6/3.1/6.3/12.5/25/50/100 × 10^−6 M) of ST‐CY14 were mixed with the cell lysate (v/v, 5 µL:5 µL) and incubated for 20 min. The measurement was carried out at 40% MST power."}, "Solubility test in PBS": {"test": "Solubility test in PBS", "format": "physicochemical", "conditions": "PBS buffer, aqueous buffer, 1 mg in 50 µL, gradient diluted from 20 to 0.078125 mg mL^−1, OD at 600 nm (turbidity), plate reader", "protocol": "Mix 1 mg ST‐CY14 or Csn‐B (Shanghai Sunny Biotech) in 50 µL PBS buffer, and then transfer 40 µL the suspension to a 96‐well plate. The suspension was gradient diluted from 20 to 0. 07 8125 mg mL^−1. OD values were measured at 600 nm on a Cytation 5 (Biotek, USA) plate reader. PBS was set as a blank control."}, "MDA-MB-231-GFP xenograft": {"system": "MDA-MB-231-GFP xenograft", "test": "MDA-MB-231-GFP orthotopic xenograft tumor model", "format": "in vivo, mouse", "excerpt": "(§1) Female BALB/c mice (4–5 weeks old, 16–18 g) and BALB/c mice (7–8 weeks old, 18–20 g) were provided by Shanghai Slake Experimental Animal Co., Ltd., and housed under specific pathogen‐free conditions for use in orthotopic xenograft tumor model experiments and bone metastasis tumor model experiments. The animal experiment was approved by the ethical committee of Shanghai University of Traditional Chinese Medicine (approval number: PZSHUTCM220627036).\nTo establish the bone metastasis tumor model, 1×10^5 cells were injected into the left ventricle of each mouse (7–8 weeks old), and surgery was monitored using a cardiac ultrasound instrument. The mice were randomly divided into three groups and treated with PBS (control group, n = 6), 5 mg kg^−1 ST‐CY14 (n = 6), and 10 mg kg^−1 ST‐CY14 (n = 6) Tumor cell metastasis was monitored using an in vivo imaging instrument (IVIS Spectrum, PerkinElmer, USA). by intraperitoneal injection of 20 mg kg^−1 D‐luciferin. The mice were treated with ST‐CY14 via intravenous injection using a 100 µL PBS solution every 2 days starting on the designated day after tumor cell injection. Bone tissue with MDA‐BoM‐1833 cell metastasis was obtained and stained for TRAP. The mice sera were collected and analyzed for BSP and β‐CTx levels using ELISA (Lengton, BPE10823, BPE10438). For the orthotopic xenograft tumor model, 3×10^6 cells were injected into the fourth pair of breast pads on the left side of the mouse (4–5 weeks old). The mice were treated with ST‐CY14 every two days once the tumor volume reached 30–50 mm^3, with the same groups as in the bone metastasis tumor model. The tumors were collected and stained for H&E, Ki‐67, and TUNEL assays, which were conducted by Wuhan Servicebio Technology Co., Ltd. Major organs (heart, liver, spleen, lung, and kidney) were also collected for H&E analysis by Wuhan Servicebio Technology Co., Ltd. The Transcriptome and LC/MS targeted lipid metabolome were sequenced by OE Biotech, Inc., Shanghai, China. […]"}, "MDA-MB-231 cells [2]": {"system": "MDA-MB-231 cells", "test": "Western blot of Nur77, CD36 and FABP4", "format": "cell-based", "protocol": "MCF7 and MDA‐MB‐231 cells were treated with various concentrations of peptide. The cells were then collected and lysed in NP40 lysis buffer. Total protein was quantified using a BCA assay kit (Beyotime, P0010S). The proteins were separated by SDS‐PAGE and transferred onto a PVDF membrane. The PVDF membrane was blocked in TBST containing 5% non‐fat milk, and then incubated with primary antibodies overnight at 4 °C. Subsequently, membranes were incubated with horseradish peroxidase‐conjugated antirabbit or antimouse IgG secondary antibody for 1 h at room temperature. The membranes were analyzed by a Tanon‐5200 Multi Gel Imaging Analysis System (Tanon) and quantified by ImageJ software."}, "MCF7 cells [3]": {"system": "MCF7 cells", "test": "Cell viability assay (CCK-8)", "format": "cell-based, human", "conditions": "MCF7, 5 × 10^−6 M, 24 h", "quoted_text": "(§2) MCF7, MDA‐MB‐231, and MDA‐BoM‐1833 cells (5000 cells/well) were seeded in 96‐well plates and cultured overnight at 37°C and 5% CO2. The cells were then treated with fresh basic medium containing various concentrations (1/2/5/10/20 × 10^−6 M) of compounds. After 24 h of incubation, the cells were incubated with a basic medium containing 10% Cell Counting Kit‐8 (Dojindo, CK‐04) for 2 h. Cell viability was evaluated by measuring the absorbance at 450 nm. The formula used was [(As‐Ab)/(Ac‐Ab)] × 100%, where as represents the absorbance of the drug‐treated group, Ac represents the absorbance of the control group treated with medium, and Ab represents the absorbance of the blank control containing only medium."}, "[4]": {"system": "MDA-BoM-1833 bone metastasis", "test": "Bone metastatic breast cancer model (MDA-BoM-1833, left ventricle injection)", "format": "in vivo, mouse", "excerpt": "as §1\nTo establish the bone metastasis tumor model, 1×10^5 cells were injected into the left ventricle of each mouse (7–8 weeks old), and surgery was monitored using a cardiac ultrasound instrument. The mice were randomly divided into three groups and treated with PBS (control group, n = 6), 5 mg kg^−1 ST‐CY14 (n = 6), and 10 mg kg^−1 ST‐CY14 (n = 6) Tumor cell metastasis was monitored using an in vivo imaging instrument (IVIS Spectrum, PerkinElmer, USA). by intraperitoneal injection of 20 mg kg^−1 D‐luciferin. The mice were treated with ST‐CY14 via intravenous injection using a 100 µL PBS solution every 2 days starting on the designated day after tumor cell injection. Bone tissue with MDA‐BoM‐1833 cell metastasis was obtained and stained for TRAP. The mice sera were collected and analyzed for BSP and β‐CTx levels using ELISA (Lengton, BPE10823, BPE10438). For the orthotopic xenograft tumor model, 3×10^6 cells were injected into the fourth pair of breast pads on the left side of the mouse (4–5 weeks old). The mice were treated with ST‐CY14 every two days once the tumor volume reached 30–50 mm^3, with the same groups as in the bone metastasis tumor model. The tumors were collected and stained for H&E, Ki‐67, and TUNEL assays, which were conducted by Wuhan Servicebio Technology Co., Ltd. Major organs (heart, liver, spleen, lung, and kidney) were also collected for H&E analysis by Wuhan Servicebio Technology Co., Ltd. The Transcriptome and LC/MS targeted lipid metabolome were sequenced by OE Biotech, Inc., Shanghai, China. To evaluate the efficacy of Csn‐B in inhibiting breast cancer bone metastasis, an animal model was established as described above. The mice were randomly divided into three groups and treated with PBS (control group, n = 6), 10 mg kg^−1 ST‐CY14 (n = 6) in 100 µL PBS solution, and 5 mg kg^−1 ST‐CY14 (n = 6) in a 100 µL mixed solution (5% DMSO, 20% PEG 400, 5% Tween 80, and 70% normal saline) via intravenous injection every 2 days starting on the designated day after tumor cell injection."}, "MDA-MB-231 cells [5]": {"system": "MDA-MB-231 cells", "test": "Cell viability assay (CCK-8)", "format": "cell-based", "conditions": "MDA-MB-231, 5 × 10^−6 M, 24 h", "quoted_text": "as §2"}, "MCF7 cells [6]": {"system": "MCF7 cells", "test": "qPCR of CD36 and FABP4", "format": "cell-based, human", "conditions": "n = 3"}}, "note": "Where a SMILES comes first, the peptide text is derived from it. Bridges are numbered along the chain shown (N, C = ends). [ ]: non-standard residue; d: D form. S5 = C=CCCC[C@](C)(N)C(=O)O", "data": [{"compound": "C[C@@H](O)[C@@H]1NC(=O)[C@H](CCCNC(=N)N)NC(=O)[C@H](CCCNC(=N)N)NC(=O)[C@@](C)(NC(=O)[C@H](Cc2ccccc2)NC(=O)CNC(=O)[C@H](CCCCN)NC(=O)[C@H](CS)NC(=O)CNC(=O)[C@H](CCC(=O)O)NC(=O)[C@@H](N)CS)CCCC=CCCC[C@@](C)(C(=O)N[C@@H](CCCNC(=N)N)C(=O)N[C@@H](Cc2ccc(O)cc2)C(=O)N[C@@H](Cc2ccc(O)cc2)C(=O)NCC(=O)N[C@@H](CCCNC(=N)N)C(=O)N[C@@H](CCCCN)C(=O)N[C@@H](CCCCN)C(=O)N[C@@H](CCCNC(=N)N)C(=O)N[C@@H](CCCNC(=N)N)C(=O)N[C@@H](CCC(N)=O)C(=O)N[C@@H](CCCNC(=N)N)C(=O)N[C@@H](CCCNC(=N)N)C(=O)N[C@@H](CCCNC(=N)N)C(N)=O)NC1=O", "note": "[ST-CY14] (H-CEGCKGF[S5]RRT[S5]RYYGRKKRRQRRR-NH2; staple 8-12)", "values": [{"measurement": "Interaction with mutated Nur77 (MST)", "setting": "[1]", "value": "disrupted the interaction"}, {"measurement": "solubility", "setting": "Solubility test in PBS", "value": "> 20", "unit": "mg/mL"}, {"measurement": "Body weight loss and signs of organ toxicity", "setting": "MDA-MB-231-GFP xenograft; 5 and 10 mg kg^−1, tail vein, once every two days, thirty days, H&E of major organs", "value": "without significant body weight loss (Figure 6c) or other signs of organ toxicity"}, {"measurement": "Nur77, CD36 and FABP4 protein levels in tumors (Western blot)", "setting": "MDA-MB-231-GFP xenograft; MDA-MB-231-GFP tumors", "value": "effectively increased Nur77 protein levels, and decreased CD36 and FABP4 protein levels"}, {"measurement": "Ki-67, H&E and TUNEL analysis of tumor sections", "setting": "MDA-MB-231-GFP xenograft; compared with the control group, n = 3", "value": "reduced tumor cell proliferation, increased necrosis area and apoptosis"}, {"measurement": "CD36 and FABP4 protein expression (immunoblot)", "setting": "MDA-MB-231 cells [2]", "value": "inhibited the protein expression of CD36 and FABP4"}, {"measurement": "Nur77 protein expression (immunoblot)", "setting": "MDA-MB-231 cells [2]", "value": "increase in Nur77 expression"}, {"measurement": "Cell viability / proliferation", "setting": "MCF7 cells [3]", "value": "significantly attenuated breast tumor cell proliferation"}, {"measurement": "Bone metastasis (bioluminescence imaging)", "setting": "[4]; 5 and 10 mg kg^−1 i.v. every 2 days, day 28, n = 6", "value": "inhibited the metastasis of tumor cells"}, {"measurement": "H&E staining of major organs", "setting": "[4]; heart, liver, spleen, lung, kidney, n = 3", "value": "None of the groups demonstrated notable changes in H&E staining of major organs"}, {"measurement": "Efficacy in inhibiting bone metastasis compared with Csn-B", "setting": "[4]; i.v. every 2 days, day 28, n = 6", "value": "superior to that of Csn‐B"}, {"measurement": "TRAP level in mouse femoral head", "setting": "[4]; staining of bone tissue", "value": "decrease in the level of tartrate‐resistant acid phosphatase"}, {"measurement": "BSP and β-CTx levels in mouse blood (ELISA)", "setting": "[4]; versus control group", "value": "Lower levels"}, {"measurement": "Cell viability / proliferation", "setting": "MDA-MB-231 cells [5]", "value": "significantly attenuated breast tumor cell proliferation"}, {"measurement": "CD36 and FABP4 transcription (qPCR)", "setting": "MCF7 cells [6]", "value": "dose‐dependently inhibited CD36 and FABP4 expression at the transcriptional level"}]}]}
